Reference: PubChem BioAssay (NCI)
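Protocol summary: plate cells (96-well), add compound at 5 concentrations, incubate 48 h, interpolate endpoints linearly. GI50: concentration for 50% inhibition of growth. The concentration for full growth arrest is given as TGI.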

What was measured:
Assay in all cases: NCI anticancer screen, dose series, 48 h
[1] = tested on: MALME-3M melanoma
[2] = tested on: PC-3 prostate
[3] = tested on: OVCAR-3 ovarian
[4] = tested on: DU-145 prostate
[5] = tested on: NCI-H522 lung
[6] = tested on: SK-OV-3 ovarian
[7] = tested on: M14 melanoma
[8] = tested on: SK-MEL-5 melanoma
[9] = tested on: IGROV1 ovarian
[10] = tested on: MOLT-4 leukemia
[11] = tested on: SK-MEL-2 melanoma
[12] = tested on: MDA-MB-231 breast
[13] = tested on: KM12 colon
[14] = tested on: CCRF-CEM leukemia
[15] = tested on: HT29 colon
[16] = tested on: T-47D breast
[17] = tested on: SN12C renal
[18] = tested on: OVCAR-5 ovarian
[19] = tested on: HCT-116 colon
[20] = tested on: SW-620 colon
[21] = tested on: UACC-62 melanoma
[22] = tested on: NCI-H23 lung
[23] = tested on: HCC-2998 colon
[24] = tested on: 786-0 renal
[25] = tested on: NCI/ADR-RES ovarian
[26] = tested on: ACHN renal
[27] = tested on: OVCAR-4 ovarian
[28] = tested on: NCI-H226 lung
[29] = tested on: MDA-MB-435
[30] = tested on: UO-31 renal
[31] = tested on: HS 578T breast
[32] = tested on: SNB-19 CNS
[33] = tested on: U251 CNS
[34] = tested on: BT-549 breast
[35] = tested on: COLO 205 colon
[36] = tested on: SK-MEL-28 melanoma
[37] = tested on: K-562 leukemia
[38] = tested on: SF-539 CNS
[39] = tested on: SNB-75 CNS
[40] = tested on: RPMI-8226 leukemia
[41] = tested on: TK-10 renal
[42] = tested on: OVCAR-8 ovarian
[43] = tested on: NCI-H460 lung
[44] = tested on: HOP-92 NSCLC
[45] = tested on: SR leukemia
[46] = tested on: SF-268 CNS
[47] = tested on: LOX IMVI melanoma
[48] = tested on: SF-295 CNS
[49] = tested on: HOP-62 NSCLC
[50] = tested on: MCF7 breast
[51] = tested on: HL-60(TB) leukemia
[52] = tested on: UACC-257 melanoma
[53] = tested on: A549 NSCLC
[54] = tested on: EKVX NSCLC
[55] = tested on: RXF 393 renal
[56] = tested on: CAKI-1 renal
[57] = tested on: A498 renal
[58] = tested on: HCT-15 colon

CC(C)(C)Nc1nc2c(OCCc3ccccc3)cccn2c1-c1ccc(Cl)cc1
GI50 [1]: 23.9 µM
TGI [1]: 59 µM
GI50 [2]: 25.3 µM
TGI [2]: > 100 µM
GI50 [3]: 16.4 µM
TGI [3]: 64.8 µM
GI50 [4]: 25 µM
TGI [4]: > 100 µM
GI50 [5]: 16.1 µM
TGI [5]: 54.3 µM
GI50 [6]: 24.5 µM
TGI [6]: 75.7 µM
GI50 [7]: 26.3 µM
TGI [7]: 71.2 µM
GI50 [8]: 17 µM
TGI [8]: 32.6 µM
GI50 [9]: 25.7 µM
TGI [9]: > 100 µM
GI50 [10]: 18.3 µM
TGI [10]: 95.5 µM
GI50 [11]: 12.8 µM
TGI [11]: 28.8 µM
GI50 [12]: 16.7 µM
TGI [12]: 35 µM
GI50 [13]: 22.2 µM
TGI [13]: 69.9 µM
GI50 [14]: 29.9 µM
TGI [14]: 97.2 µM
GI50 [15]: 19.7 µM
TGI [15]: 53.6 µM
GI50 [16]: 17.7 µM
TGI [16]: > 100 µM
GI50 [17]: 22.4 µM
TGI [17]: > 100 µM
GI50 [18]: 23.7 µM
TGI [18]: > 100 µM
GI50 [19]: 17.6 µM
TGI [19]: 43.4 µM
GI50 [20]: 28.1 µM
TGI [20]: > 100 µM
GI50 [21]: 16 µM
TGI [21]: 38.3 µM
GI50 [22]: 25.3 µM
TGI [22]: 83.4 µM
GI50 [23]: 28.1 µM
TGI [23]: > 100 µM
GI50 [24]: 19.4 µM
TGI [24]: 45.2 µM
GI50 [25]: 21.6 µM
TGI [25]: 82.4 µM
GI50 [26]: 27.3 µM
TGI [26]: > 100 µM
GI50 [27]: 26.7 µM
TGI [27]: > 100 µM
GI50 [28]: 18.1 µM
TGI [28]: 60 µM
GI50 [29]: 30.3 µM
TGI [29]: > 100 µM
GI50 [30]: 11.3 µM
TGI [30]: 39.7 µM
GI50 [31]: 20.8 µM
TGI [31]: 77.5 µM
GI50 [32]: 32.3 µM
TGI [32]: > 100 µM
GI50 [33]: 18.7 µM
TGI [33]: 48.7 µM
GI50 [34]: 19.6 µM
TGI [34]: 49.5 µM
GI50 [35]: 16.4 µM
TGI [35]: 34.7 µM
GI50 [36]: 27.6 µM
TGI [36]: > 100 µM
GI50 [37]: 26.4 µM
TGI [37]: > 100 µM
GI50 [38]: 18.5 µM
TGI [38]: 37.8 µM
GI50 [39]: 17.6 µM
TGI [39]: > 100 µM
GI50 [40]: 20.8 µM
TGI [40]: 60.4 µM
GI50 [41]: 25.3 µM
TGI [41]: 79.5 µM
GI50 [42]: 27.1 µM
TGI [42]: > 100 µM
GI50 [43]: 18.9 µM
TGI [43]: 50.5 µM
GI50 [44]: 17.4 µM
TGI [44]: 67.2 µM
GI50 [45]: 19.3 µM
TGI [45]: > 100 µM
GI50 [46]: 27.1 µM
TGI [46]: > 100 µM
GI50 [47]: 17.1 µM
TGI [47]: 33.3 µM
GI50 [48]: 24.8 µM
TGI [48]: 61.8 µM
GI50 [49]: 20.2 µM
TGI [49]: 52.8 µM
GI50 [50]: 21.1 µM
TGI [50]: 93.5 µM
GI50 [51]: 25.7 µM
TGI [51]: 74.5 µM
GI50 [52]: 26.4 µM
TGI [52]: 89.9 µM
GI50 [53]: 24 µM
TGI [53]: > 100 µM
GI50 [54]: 22.5 µM
TGI [54]: 86 µM
GI50 [55]: 13.4 µM
TGI [55]: 35.6 µM
GI50 [56]: 25.1 µM
TGI [56]: > 100 µM
GI50 [57]: 15.2 µM
TGI [57]: 62.1 µM
GI50 [58]: 17.3 µM
TGI [58]: 43.1 µM
